SMILES strings stand for the structures. pIC50: −log10 of the molar value. Where a name gives a salt, the structure may show the parent alone.

Tested on in the first data set: not given
Test: not given
Settings: not given
One may read the melting point as the temperature of the solid-liquid transition. Regarding `COc1cc(OCCN2CCOCC2)c(/C=C/C(=O)c2ccc(S(N)(=O)=O)cc2)cc1-c1cccs1.Cl`, the melting point is 235 °C (dec.).

Consider `COc1cc(OC)c(-c2cc3ccccc3s2)cc1/C=C/C(=O)c1ccc(C(=O)O)cc1` (as salt: salt) [Example 120, 4-[3E-(5-Benzo[b]thien-2-yl-2,4-dimethoxyphenyl)-acryloyl]-benzoic acid, N-methyl-D-glucamine salt], for which the melting point lay within 75 to 80 °C.

For the molecule `O=C([O-])c1ccc(/C=C/C(=O)c2ccc(-c3cccs3)cc2)cc1.[Na+]` [Example 17, 4-[3-{4-(thien-2-yl)-phenyl}-3-oxo-E-propenyl]-benzoic acid, sodium salt], the melting point was more than 260 °C.

`COc1cc(OC)c(-c2cc3ccccc3s2)cc1/C=C/C(=O)c1ccc(C(=O)[O-])cc1.[Na+]` [Example 56, 4-[3E-(5-Benzo[b]thiophen-2-yl-2,4-dimethoxy-phenyl)-acryloyl]-benzoic acid, sodium salt]: the melting point is more than 235 °C.

With `COc1cc(OC(C)(C)C(=O)O)c(/C=C/C(=O)c2ccc(C(=O)O)cc2)cc1-c1cccs1` [Example 59, 4-{3E-[2-(1-Carboxy-1-methyl-ethoxy)-4-methoxy-5-thiophen-2-yl-phenyl]-acryloyl}-benzoic acid], the melting point was 223 to 225 °C.

As for `COc1cc(OCC(N)=O)c(/C=C/C(=O)c2ccc(C(=O)O)cc2)cc1-c1cccs1` [Example 71, 4-[3E-(2-Carbamoylmethoxy-4-methoxy-5-thiophen-2-yl-phenyl)-acryloyl]-benzoic acid], the melting point is 235 °C (dec.).

On to `COc1cc(OCC(=O)N2CCOCC2)c(/C=C/C(=O)c2ccc(C(=O)O)cc2)cc1-c1cccs1` [Example 72, 4-{3E-[4-Methoxy-2-(2-morpholin-4-yl-2-oxo-ethoxy)-5-thiophen-2-yl-phenyl]-acryloyl}-benzoic acid], for which the melting point is 231 to 233 °C.

`COc1cc(OCCC2CCCN2C)c(/C=C/C(=O)c2ccc(C(=O)O)cc2)cc1-c1cccs1.Cl` (stereo not shown) [Example 73, 4-(3E-{4-Methoxy-2-[2-(1-methyl-pyrrolidin-2-yl)-ethoxy]-5-thiophen-2-yl-phenyl}-acryloyl)-benzoic acid, hydrochloride]: the melting point lay within 206 to 208 °C.

In turn, `COc1cc(OC(C)(C)C(=O)O)c(/C=C/C(=O)c2ccc(S(N)(=O)=O)cc2)cc1-c1cccs1` [Example 82, 2-{5-Methoxy-2-[3-oxo-3-(4-aminosulfonyl-phenyl)-E-propenyl]-4-thiophen-2-yl-phenoxy}-2-methyl-propionic acid] showed a melting point of 164 to 165 °C.

Consider `COc1cc(OCc2nnn[nH]2)c(/C=C/C(=O)c2ccc(S(N)(=O)=O)cc2)cc1-c1cccs1` [Example 89, 4-{3E-[4-Methoxy-2-(1H-tetrazol-5-ylmethoxy)-5-thiophen-2-yl-phenyl]-acryloyl}-benzenesulfonamide], for which the melting point was 163 to 164 °C (dec.).

Consider `O=C(O)CNC(=O)Nc1ccc(C(=O)/C=C/c2ccc(-c3cccs3)cc2)cc1` [Example 97, 4(3E-{4-[3-(4-Thiophen-2-yl-phenyl)-acryloyl]-phenyl}-ureido)-acetic acid], for which the melting point fell in the range of 222 to 225 °C.

In turn, `COc1cc(OC)c(-c2cccnc2)cc1/C=C/C(=O)c1ccc(S(N)(=O)=O)cc1` [Example 104, 4-[3E-(2,4-Dimethoxy-5-pyridin-3-yl-phenyl)-acryloyl]-benzenesulfonamide] yielded a melting point of 253 to 255 °C.

The molecule `COc1cc(OC)c(-c2c[nH]c(C3CC3)n2)cc1/C=C/C(=O)c1ccc(C(=O)O)cc1.Cl` [Example 105, 4-{3E-[5-(2-Cyclopropyl-1H-imidazol-4-yl)-2,4-dimethoxy-phenyl]-acryloyl}-benzoic acid, hydrochloride] showed a melting point of more than 240 °C.

The molecule `COc1cc(OC)c(-c2cc3ccccc3s2)cc1/C=C/C(=O)c1ccc(S(=O)(=O)c2ccccc2)cc1` [Example 107, 1-(4-Benzenesulfonyl-phenyl)-3E-(5-benzo[b]thiophen-2-yl-2,4-dimethoxy-phenyl)-propenone] came in with a melting point of 127 to 128 °C.

In turn, `COc1cc(OC)c(-c2nncn2CC(C)C)cc1/C=C/C(=O)c1ccc(S(N)(=O)=O)cc1` [Example 109, 4-{3E-[5-(4-Isobutyl-4H-[1,2,4]triazol-3-yl)-2,4-dimethoxy-phenyl]-acryloyl}-benzenesulfonamide] registered a melting point of more than 240 °C.

Take `COc1cc(OC)c(-c2nc3cccnc3[nH]2)cc1/C=C/C(=O)c1ccc(S(N)(=O)=O)cc1` [Example 112, 4-{3E-[5-(3H-Imidazo[4,5-b]pyridin-2-yl)-2,4-dimethoxy-phenyl]-acryloyl}-benzenesulfonamide]: the melting point is more than 260 °C.

Consider `COc1cc(OC)c(-c2cc3ccccc3n2C)cc1/C=C/C(=O)c1ccc(C(=O)O)cc1` [Example 116, 4-{3E-[2,4-Dimethoxy-5-(1-methyl-1H-indol-2-yl)-phenyl]-acryloyl}-benzoic acid], for which the melting point lay in the range of 157 to 160 °C.

Turning to `NS(=O)(=O)c1ccc(C(=O)/C=C/c2cccc(C3CC=CO3)c2)cc1` (stereo not shown) [Example 119, 4-{3-[3E-(2,3-Dihydro-furan-2-yl)-phenyl]-acryloyl}-benzenesulfonamide], the melting point lay in the range of 152 to 153 °C.

Molecule `COc1cc(OC)c(C2C=CCO2)cc1/C=C/C(=O)c1ccc(S(N)(=O)=O)cc1` (stereo not shown) [Example 121, 4-{3E-[5-(2,5-Dihydro-furan-2-yl)-2,4-dimethoxy-phenyl]-acryloyl}-benzenesulfonamide] displayed a melting point of 194 to 195 °C.

Consider `COc1cc(Oc2cccc(C)n2)c(/C=C/C(=O)c2ccc(S(N)(=O)=O)cc2)cc1-c1cccs1` [Example 122, 4-{3E-[4-Methoxy-2-(6-methyl-pyridin-2-yloxy)-5-thiophen-2-yl-phenyl]-acryloyl}-benzenesulfonamide], for which the melting point lay within 164 to 165 °C.

The next data set has as its system VCAM-1. The data set is described as follows: In Vitro VCAM-1 Assay (TNF-α stimulated HAEC or HPAEC, cell ELISA). Format: cell-based, human. The settings on record: Homo sapiens, 16 h, TNF-α (1 ng/ml) stimulated HAEC or HPAEC, approximately 16 hours. As for the experimental part: Cell Culture and compound dosing: Cultured primary human aortic (HAEC) or pulmonary (HPAEC) endothelial cells were obtained from Clonetics, Inc., and were used below passage 9. Cells were seeded in 96 well plates such that they would reach 90–95% confluency by the following day. On the following day the cells were stimulated with TNF-α (1 ng/ml) in the presence or absence of compounds dissolved in DMSO such that the final concentration of DMSO is 0.25% or less. To establish a dose curve for each compound, four concentrations in 2- to 5-fold increments were used. Cells were exposed to TNF-α and compounds for approximately 16 hours. The next day the cells were examined under microscope to score for visual signs of toxicity or cell stress.
Following 16 hr exposure to TNF-α and compound the media was discarded and the cells were washed once with Hanks Balanced Salt Solution (HBSS)/Phosphate buffered saline (PBS) (1:1). Primary antibodies against VCAM-1 (0.25 μg/ml in HBSS/PBS+5% FBS) were added and incubated for 30–60 minutes at 37° C. Cells were washed with HBSS/PBS three times, and secondary antibody Horse Radish Peroxidase (HRP)-conjugated goat anti-mouse IgG (1:500 in HBSS/PBS+5% FBS) were added and incubated for 30 minutes at 37° C. Cells were washed with HBSS/PBS four time and TMB substrate were added and incubated at room temperature in the dark until there was adequate development of blue color. The length of time of incubation was typically 5–15 minutes. 2N sulfuric acid was added to stop the color development and the data was collected by reading the absorbance on a BioRad ELISA plate reader at OD 450 nm. The results are expressed as IC50 values (the concentration (micromolar) of compound required to inhibit 50% of the maximal response of the control sample stimulated by TNF-α only).
In general terms: In an ELISA, binding on a coated surface is turned into a signal by an enzyme label.
Usually pIC50 stands for −log10 of the IC50, conventionally taken in molar units. Low readings indicate a high IC50, high ones a low IC50. The molecule `COc1cc(OC)c(-c2cc3ccccc3s2)cc1/C=C/C(=O)c1ccc(SCC(=O)O)cc1` [Example 23, {4-[3E-(5-Benzo[b]thiophen-2-yl-2,4-dimethoxy-phenyl)-acryloyl]-phenylthio}-acetic acid] showed a pIC50 of more than 6.00.

Regarding `O=C(/C=C/c1ccc(-c2cccs2)cc1)c1ccc(SC(F)(F)C(=O)O)cc1` [Example 25, Difluoro-{4-[3E-(4-thiophen-2-yl-phenyl)-acryloyl]-phenylthio}-acetic acid, sodium salt], the pIC50 is less than 5.00.

Molecule `COc1cc(/C=C/C(=O)c2ccc3c(ccn3C)c2)cc(-c2cccs2)c1OC` [Example 28, 3E-(3,4-Dimethoxy-5-thiophen-2-yl-phenyl)-1-(1-methyl-1H-indol-5-yl)-propenone] showed a pIC50 of more than 5.30.

For `COC(=O)c1ccc(-c2cc(/C=C/C(=O)c3ccc(C(=O)O)cc3)c(OC)cc2OC)s1` [Example 51, 5-{5-[3-(4-Carboxy-phenyl)-3-oxo-E-propenyl]-2,4-dimethoxy-phenyl}-thiophene-2-carboxylic acid methyl ester], the pIC50 was more than 5.30.

On to `COc1cc(OC)c(-c2ccc(C(=O)O)s2)cc1/C=C/C(=O)c1ccc(C(=O)O)cc1` [Example 52, 5-{5-[3-(4-Carboxy-phenyl)-3-oxo-E-propenyl]-2,4-dimethoxy-phenyl}-thiophene-2-carboxylic acid], for which the pIC50 was less than 5.00.

As for `O=C(O)c1ccc(C(=O)/C=C/c2cc(-c3cccs3)ccc2N2CCCC2)cc1` [Example 63, 4-[3E-(2-Pyrrolidin-1-yl-5-thiophen-2-yl-phenyl)-acryloyl]-benzoic acid], the negative-log IC50 (pIC50) was more than 5.00.

`COc1cc(OC)c(-c2cccs2)cc1/C=C/C(=O)c1ccc(C(C)(C)C(=O)O)cc1` [Example 77, 2-{4-[3E-(2,4-Dimethoxy-5-thiophen-2-yl-phenyl)-acryloyl]-phenyl}-2-methyl-propionic acid] had a pIC50 of more than 5.30.

With `COc1cc(OC)c(-c2cc3ccccc3s2)cc1/C=C\C(=O)c1ccc(C(=O)O)cc1` [Example 79, 4-[3Z-(5-Benzo[b]thien-2-yl-2,4-dimethoxyphenyl)-acryloyl]-benzoic acid], the negative-log IC50 (pIC50) is more than 6.00.

On to `COc1cc(OC)c(-c2cc3ccccc3s2)cc1/C=C/C(=O)c1ccc(S(N)(=O)=O)cc1` [Example 80, 4-[3E-(5-Benzo[b]thiophen-2-yl-2,4-dimethoxy-phenyl)-acryloyl]-benzenesulfonamide], for which the negative logarithm of the IC50 (pIC50) was more than 5.30.

Take `COc1cc(OC)c(-c2cc3ccccc3s2)cc1/C=C/C(=O)c1ccc(C(=O)NCCN2CCOCC2)cc1` [Example 90, 4-[3E-(5-Benzo[b]thiophen-2-yl-2,4-dimethoxy-phenyl)-acryloyl]-N-(2-morpholin-4-yl-ethyl)-benzamide]: the pIC50 was more than 6.00.

Turning to `COc1cc(/C=C/C(=O)c2ccc(N(C)S(C)(=O)=O)cc2)cc(-c2cccs2)c1OC` [Example 98, N-{4-[3E-(3,4-Dimethoxy-5-thiophen-2-yl-phenyl)-acryloyl]-phenyl}-N-methyl-methanesulfonamide], the negative-log IC50 (pIC50) is more than 5.30.

The record behind these values is US7094801B2, “Chalcone derivatives and their use to treat diseases” (Atherogenics, Inc., priority 2001, dated 2006).
